How the values were obtained:
[1] = test system: fibrocystin cleavage in HEK-293 cells; experiment: Immunoblot (anti-V5) of fibrocystin proteolysis in HEK-293 cells transfected with pFC-V5; type: cell-based, human
Procedure: (§1) FIG. 4 A is an image of a gel illustrating mIMCD3/FC cells were grown for 4 days and incubated with 0.1 μM thapsigargin (lane 2), 5 mM caffeine (lane 3), 75 μM dantrolene (lane 5), 200 μM ruthenium red (lane 7), or no additions (lanes 1, 4 and 6). After 2 hours, media were replaced with media lacking serum but containing the same supplements, and, in addition, 10 nM mifeprisone. Cell lysates were prepared after 24 hours and analyzed by immunoblotting using anti-V5 antibody. FIG. 4B is a graph of mIMCD-3 cells were transfected with 0.2 μg pG5-luc and either 0.2 μg pFC-GV or 0.2 μg pLDLR-GV. After 24 hours, cells were incubated in serum-free media in the presence or absence of 75 μM dantrolene. Relative luciferase activity was determined after 48 h. Data presented are mean ±SE of three separate transfections. The fibrocystin/Gal4-VP16 fusion protein is shown schematically below. Shaded box indicates the transmembrane segment; filled boxes indicate the N-terminal signal sequence and the C-terminal Gal4-VP16 fusion protein. FIG. 4C is an image of a gel illustrating HEK-293 cells transfected with 6 μg pFC-V5, and 8 hours later incubated in serum-free media containing 1-8 mM caffeine, 0.5 μM calphostin, or no additions. Cells were lysed after 16 h, and extracts were analyzed by immunoblotting using anti-V5 antibody. FIG. 4D is a graph of HEK-293 cells transfected with 0.2 μg pFC-GV and 0.2 μg pG5-luc. After 24 hours, cells were incubated in serum-free media containing 5 mM caffeine or no additions. Luciferase activity was measured after 12 hours. Data presented are mean ±SE of three separate transfections. FIG. 4E is an image of a gel illustrating HEK-293 cells stably expressing the m3 muscarinic receptor (lanes 1-4) and untransfected HEK-293 cells (lanes 5-8) were transfected with 6 μg pFC-V5. […] Cells were lysed after 16 hours, and extracts were analyzed by immunoblotting using anti-V5 antibody.
FIG. 5A is an image of a gel that illustrates HEK-293 cells were transfected with 6 μg pFC-V5. […] Fourteen hours later, cellular proteins were extracted and analyzed by immunoblotting using anti-V5 antibody. FIG. 5B is an image of a gel mIMCD3/FC cells were grown for 4 days, and expression of fibrocystin was induced by addition of 10 nM mifepristone. After 24 hours, media were supplemented with 0.1, 0.5, or 1 μM calphostin C. Thirty hours later, cells were harvested, and proteins were analyzed by immunoblotting using anti-V5 antibody. FIG. 5C is an image of a gel illustrating HEK-293 cells were transfected with 3 μg pFC-V5 and either 3 μg of the empty vector pEF-neo (lanes 1 and 3) or 3 μg pEF-PKCαA/E (lanes 2 and 4). After 12 hours media were changed to media containing 10% FCS (lanes 1 and 2) or 0.2% BSA (lanes 3 and 4). Forty-eight hours later, cells were harvested, and proteins were subjected to immunoblotting using anti-V5 antibody. FIG. 5D is a plot illustrating HEK-293 cells transfected with 0.2 μg pG5-luc and 0.2 μg pFC-GV, pLDLR-GV and/or pEF-PKCαA/E. After 16 hours, media were changed to serum-free media containing 100 nM PMA or 500 μM Br-cAMP. Twenty-four hours later, cells were harvested, and relative luciferase activities were determined. Data are the mean ±SE of three independent transfections.

[2] = test system: fibrocystin cleavage in HEK-293 cells; experiment: Luciferase reporter assay of fibrocystin cleavage (pFC-GV / pG5-luc) in HEK-293 cells; type: cell-based, human; details: 5 mM caffeine versus vehicle, HEK-293, 12 hours, FIG. 4D
Procedure: Reporter Gene Assays—mIMCD-3 cells, HEK-293 cells, or HeLa cells were plated in 6-well dishes (3×10^5 cells/well) and cotransfected with 0.05 μg phRL-TK(Int−) encoding Renilla luciferase (Promega, Madison, Wis.), 0.1 μg Photinus luciferase reporter plasmids, and 0.01-0.3 μg effector plasmids. Luciferase assays were performed as described previously (Hiesberger, 2004). Relative luciferase activity was calculated as the ratio of Photinus and Renilla luciferase.
as §1
To quantitatively measure fibrocystin cleavage, a luciferase assay was developed that was similar to the ones employed to quantify the proteolytic cleavage of amyloid precursor protein (APP) and low density lipoprotein receptor related protein-1 (LRP1) (Cao, 2001; May, 2003). A plasmid (FC-GV) encoding the synthetic transcription factor Gal4-VP16 fused to the C-terminus of fibrocystin was generated. Proteolytic cleavage of the fibrocystin fusion protein releases Gal4-VP16, which translocates to the nucleus and activates a Gal4-responsive luciferase reporter gene (pG5-luc). Therefore, luciferase expression correlates with fibrocystin cleavage.
To quantify fibrocystin proteolysis in response to intracellular Ca^2+ release, the luciferase reporter assay was employed. HEK-293 cells were cotransfected with the plasmids pFC-GV and pG5-luc and incubated with either 5 mM caffeine or vehicle (as a control).
FIG. 5A is an image of a gel that illustrates HEK-293 cells were transfected with 6 μg pFC-V5.

[3] = test system: fibrocystin cleavage in HEK-293(m3) cells
Procedure: as §1, with “FIG. 4C is an image of a gel illustrating HEK-293 cells transfected with 6 μg pFC-V5, and 8 hours later incubated in serum-free media containing 1-8 mM caffeine, 0.5 μM calphostin, or no additions.” left out, “FIG. 4D is a graph of HEK-293 cells transfected with 0.2 μg pFC-GV and 0.2 μg pG5-luc. After 24 hours, cells were incubated in serum-free media containing 5 mM caffeine or no additions.” left out, “hours.” for “hours. Data presented are mean ±SE of three separate transfections. FIG. 4E is an image of a gel illustrating HEK-293 cells stably expressing the m3 muscarinic receptor (lanes 1-4) and untransfected HEK-293 cells (lanes 5-8) were transfected with 6 μg pFC-V5.”

[4] = test system: fibrocystin cleavage in mIMCD3/FC cells; experiment: Immunoblot (anti-V5) of fibrocystin proteolytic fragments in mIMCD3/FC cells; type: cell-based, human; details: pretreatment with 5 mM caffeine, lysates after 24 hours, FIG. 4A
Procedure: Cell Culture, Transfection and Generation of Stable Cell Lines—mIMCD-3 cells were plated at a density of 500,000 cells/100 mm dish, and 24 hours and 48 hours later the cells were transfected with 2 μg of pFC-V5 using Effectene (Qiagen, Valencia, Calif.). Cells were incubated for an additional 72 hours and lysed in 100 μl buffer containing Tris-buffered saline, 0.5% Triton X-100, protease inhibitor cocktail (Hoffmann-La Roche Inc., Indianapolis, Ind.). Twenty μl of the lysates were analyzed by SDS-PAGE, and immunoblot analysis was performed using HRP-conjugated anti-V5 as described previously (Hiesberger, 2005). mIMCD3/FC and mIMCD3/EGFP cell lines with inducible expression of fibrocystin and EGFP, respectively, were produced by transfecting mIMCD-3 cells with 1.5 μg pSwitch and either 1.5 μg pGeneFC or 1.5 μg pGeneEGFP. Stable transfectants were isolated after 14 days of growth in media containing hygromycin (350 μg/ml) and zeocin (300 μg/ml). To test for inducible expression, cells derived from individual clones were treated with mifepristone (10 nM) for 48 h or left untreated, and proteins were analyzed by immunoblotting using HRP-conjugated anti-FLAG. HEK-293 cells stably transfected with the muscarinic acetylcholine receptor M3 were a generous gift from Trevor Shuttleworth (University of Rochester Medical center) (Yang, 1995).
To further investigate the proteolytic cleavage of fibrocystin, mIMCD3/FC cells were generated, in which the expression of recombinant human fibrocystin can be induced by treatment with mifepristone.
FIG. 4 A is an image of a gel illustrating mIMCD3/FC cells were grown for 4 days and incubated with 0.1 μM thapsigargin (lane 2), 5 mM caffeine (lane 3), 75 μM dantrolene (lane 5), 200 μM ruthenium red (lane 7), or no additions (lanes 1, 4 and 6). After 2 hours, media were replaced with media lacking serum but containing the same supplements, and, in addition, 10 nM mifeprisone. Cell lysates were prepared after 24 hours and analyzed by immunoblotting using anti-V5 antibody. FIG. 4B is a graph of mIMCD-3 cells were transfected with 0.2 μg pG5-luc and either 0.2 μg pFC-GV or 0.2 μg pLDLR-GV. After 24 hours, cells were incubated in serum-free media in the presence or absence of 75 μM dantrolene. Relative luciferase activity was determined after 48 h. Data presented are mean ±SE of three separate transfections. The fibrocystin/Gal4-VP16 fusion protein is shown schematically below. […] Cells were lysed after 16 h, and extracts were analyzed by immunoblotting using anti-V5 antibody. […] Luciferase activity was measured after 12 hours. […] Cells were lysed after 16 hours, and extracts were analyzed by immunoblotting using anti-V5 antibody. […]

## Cn1c(=O)c2c(ncn2C)n(C)c1=O [caffeine]
[1]; 5 mM caffeine, untransfected HEK-293 cells, 16 hours, FIG. 4E
  fibrocystin proteolysis: triggered fibrocystin proteolysis
[1]; 1-8 mM caffeine, serum-free media, HEK-293, lysed after 16 h, FIG. 4C
  proteolysis of fibrocystin: induced dose-dependent proteolysis
[2]
  increase of luciferase activity: 10 fold
[3]
  fibrocystin proteolysis: triggered fibrocystin proteolysis
[4]
  generation of FCA: prevented
